Consider 15 compounds from patent US9382228B2 (priority 2013, dated 2016).

Structures are written as SMILES. Where only a bound is given, the exact number is not on record here.

For one assay, the system named is M-NFS-60 cells. Briefly: cells. Conditions: 67 h, read-out: M-NFS-60 cell proliferation.
Another assay concerns osteoclast precursors. Briefly: cells. It counts as cell-based. Conditions: read-out: Osteoclast assay.
Assay [1] relates to phospho-FMS in THP-1 cells. Briefly: cells. The settings on record: Homo sapiens, THP-1, read-out: pFMS inhibition in THP-1 cells.
Protocol: In a separate 96 well black clear bottom plate, one hundred and fifty thousand THP-1 cells were added per well in 100 μL in assay medium. Fifty microliters of diluted compound was then added to the cells. […] Lysates were prepared and used to perform the phospho-FMS ELISA as described by the manufacturer (catalog #DYC3268, R & D Systems, Minneapolis, Minn.). GraphPad Prism was used to calculate IC50 values obtained from data generated from the ELISA assay.
For assay [2], the target named is unphosphorylated c-KIT kinase (uKIT, Seq. ID no. 2) (Homo sapiens, UniProt P10721). The experiment in a line: biochemical.
unphosphorylated c-KIT kinase (uKIT, Seq. ID no. 2), sequence (P10721 with tags, fused parts or gaps): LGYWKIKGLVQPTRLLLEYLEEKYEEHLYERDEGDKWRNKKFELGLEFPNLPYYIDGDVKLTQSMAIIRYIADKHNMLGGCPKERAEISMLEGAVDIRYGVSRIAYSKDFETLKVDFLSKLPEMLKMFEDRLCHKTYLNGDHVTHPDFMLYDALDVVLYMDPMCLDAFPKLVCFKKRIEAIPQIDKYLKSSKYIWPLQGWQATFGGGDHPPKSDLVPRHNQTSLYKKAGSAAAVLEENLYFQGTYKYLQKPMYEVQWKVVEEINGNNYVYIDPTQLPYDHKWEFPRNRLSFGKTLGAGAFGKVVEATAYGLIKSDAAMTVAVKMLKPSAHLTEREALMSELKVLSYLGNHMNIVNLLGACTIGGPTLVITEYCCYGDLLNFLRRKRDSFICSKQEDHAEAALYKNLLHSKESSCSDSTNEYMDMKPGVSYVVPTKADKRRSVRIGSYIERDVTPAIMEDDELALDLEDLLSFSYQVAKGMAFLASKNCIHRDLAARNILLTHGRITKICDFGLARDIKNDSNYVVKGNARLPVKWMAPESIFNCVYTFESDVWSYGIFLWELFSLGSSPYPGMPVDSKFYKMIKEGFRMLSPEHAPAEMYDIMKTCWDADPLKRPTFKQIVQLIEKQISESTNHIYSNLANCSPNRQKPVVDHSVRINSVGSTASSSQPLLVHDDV
Protocol: uKit kinase (Seq. ID No. 2) Assay
In this assay, the oxidation of NADH (thus the decrease at A340 nm) was continuously monitored spectrophometrically. […] The inhibition reaction was started by mixing serial diluted test compound with the above reaction mixture. The absorption at 340 nm was monitored continuously for 4 hours at 30° C. on Synergy 2 plate reader (BioTech).
Assay [3] deals with unphosphorylated PDGFRβ kinase (uPDGFRβ, Seq. ID No. 3) (Homo sapiens, UniProt P09619). The experiment in a line: biochemical.
unphosphorylated PDGFRβ kinase (uPDGFRβ, Seq. ID No. 3), sequence (P09619 557-1106): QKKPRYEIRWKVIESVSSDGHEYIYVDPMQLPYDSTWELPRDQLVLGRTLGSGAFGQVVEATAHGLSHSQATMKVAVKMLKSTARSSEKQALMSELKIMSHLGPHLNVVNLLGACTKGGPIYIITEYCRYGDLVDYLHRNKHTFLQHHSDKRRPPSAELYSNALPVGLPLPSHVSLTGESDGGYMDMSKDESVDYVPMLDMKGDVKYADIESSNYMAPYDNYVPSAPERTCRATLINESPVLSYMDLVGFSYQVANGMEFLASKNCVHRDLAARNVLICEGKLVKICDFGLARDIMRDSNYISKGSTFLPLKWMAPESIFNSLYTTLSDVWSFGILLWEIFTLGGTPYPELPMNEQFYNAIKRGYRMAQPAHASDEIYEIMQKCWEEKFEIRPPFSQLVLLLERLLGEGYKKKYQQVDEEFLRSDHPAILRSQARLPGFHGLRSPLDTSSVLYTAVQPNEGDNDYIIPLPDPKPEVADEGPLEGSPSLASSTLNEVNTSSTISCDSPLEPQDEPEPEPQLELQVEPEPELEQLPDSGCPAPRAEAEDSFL
Protocol: Unphosphorylated PDGFRβ (uPDGFRβ) Kinase (Seq. ID No. 3) Assay
In this assay, the oxidation of NADH (thus the decrease at A340 nm) was continuously monitored spectrophometrically. […] The inhibition reaction was started by mixing serial diluted test compound with the above reaction mixture. The absorption at 340 nm was monitored continuously for 4 h at 30° C. on a Polarstar Optima or Synergy 2 plate reader. The reaction rate was calculated using the 1.5 to 2.5 h time frame. Percent inhibition was obtained by comparison of reaction rate with that of a control (i.e. with no test compound). IC50 values were calculated from a series of percent inhibition values determined at a range of inhibitor concentrations using software routines as implemented in the GraphPad Prism software package.
Assay [4] has as its target T1, unphosphorylated c-FMS kinase (uFMS, Seq. ID no. 1) (Homo sapiens, UniProt P07333).
T1 sequence (P07333 538-972): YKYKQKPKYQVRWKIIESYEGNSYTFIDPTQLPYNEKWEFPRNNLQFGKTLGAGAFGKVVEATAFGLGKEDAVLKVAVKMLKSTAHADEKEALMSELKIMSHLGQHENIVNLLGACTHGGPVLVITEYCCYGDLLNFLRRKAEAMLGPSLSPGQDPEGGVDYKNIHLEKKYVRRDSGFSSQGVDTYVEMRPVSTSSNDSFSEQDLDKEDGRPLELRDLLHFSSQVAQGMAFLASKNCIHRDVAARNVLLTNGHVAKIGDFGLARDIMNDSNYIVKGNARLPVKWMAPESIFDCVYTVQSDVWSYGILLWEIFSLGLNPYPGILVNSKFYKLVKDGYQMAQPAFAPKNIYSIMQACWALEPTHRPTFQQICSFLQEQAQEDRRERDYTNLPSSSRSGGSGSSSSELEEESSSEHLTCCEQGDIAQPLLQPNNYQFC
Briefly: biochemical.

[5] abbreviates: uKIT, enzymatic assay, ATP 2000 μM.
Setting [6] is: uPDGFRb, enzymatic assay, ATP 500 μM.
Where [7] appears, read: uFMS, enzymatic assay, ATP 500 μM.

Protocol for M-NFS-60 cells: M-NFS-6 Cell Proliferation Assay
A serial dilution of test compound was dispensed into a 384-well black clear bottom plate (Corning, Corning, N.Y.). Two thousand five hundred cells were added per well in 50 μL complete growth medium. […] IC50 values were calculated from a series of percent inhibition values determined at a range of inhibitor concentrations using software routines as implemented in the GraphPad Prism software package.

Turning to `CC(C)(C)C(=O)NC(=O)Nc1ccc(Oc2ccnc(-c3cnco3)c2)cn1` [Example 93, N-((5-((2-(oxazol-5-yl)pyridin-4-yl)oxy)pyridin-2-yl)carbamoyl)pivalamide], the IC50 in the assay with M-NFS-60 cells was 10 to 100 nM; in the assay on osteoclast precursors, less than 10 nM; in assay [1], less than 10 nM; in assay [2] (setting [5]), more than 1000 nM; in assay [3] (setting [6]) it was more than 1000 nM; in assay [4] (setting [7]) it was 10 to 100 nM.
Consider `Cc1cn(-c2cc(Oc3ccc(NC(=O)NC(=O)C(C)(C)C)nc3)ccn2)cn1` [Example 99, N-((5-((2-(4-methyl-1H-imidazol-1-yl)pyridin-4-yl)oxy)pyridin-2-yl)carbamoyl)pivalamide], for which the IC50 in the assay with M-NFS-60 cells was 10 to 100 nM; with osteoclast precursors, 10 to 100 nM; in assay [1], less than 10 nM; in assay [2] (IC50 (nM) uKIT, Table 3) it was 4000 nM; in assay [2] (setting [5]), more than 1000 nM; in assay [3] (IC50 (nM) uPDGFRβ, Table 3), 366 nM. Further, the IC50 was 100 to 1000 nM in assay [3] (setting [6]); 4 nM in assay [4] (IC50 (nM) uFMS, Table 3); less than 10 nM in assay [4] (setting [7]).
As for `Cc1ccc(-c2cc(Oc3ccc(NC(=O)NC(=O)C4CCOCC4)nc3)ccn2)cn1` [Example 103, N-((5-((6′-methyl-[2,3′-bipyridin]-4-yl)oxy)pyridin-2-yl)carbamoyl)tetrahydro-2H-pyran-4-carboxamide], the IC50 is 10 to 100 nM in the assay with M-NFS-60 cells; 10 to 100 nM in the assay with osteoclast precursors; less than 10 nM in assay [1]; more than 1000 nM in assay [2] (setting [5]); 100 to 1000 nM in assay [3] (setting [6]); 10 to 100 nM in assay [4] (setting [7]).
As to `Cn1cnc(-c2cc(Oc3ccc(NC(=O)NC(=O)C(C)(C)C)nc3)ccn2)c1` [Example 104, N-((5-((2-(1-methyl-1H-imidazol-4-yl)pyridin-4-yl)oxy)pyridin-2-yl)carbamoyl)pivalamide], the IC50 in the assay on M-NFS-60 cells is less than 10 nM; in the assay on osteoclast precursors, less than 10 nM; in assay [1], less than 10 nM; in assay [2] (setting [5]), more than 1000 nM; in assay [3] (setting [6]), more than 1000 nM; in assay [4] (setting [7]), less than 10 nM.
With `Cc1nc(NC(=O)NC(=O)C(C)(C)C)ccc1Oc1ccnc(-c2ccc(C#N)nc2)c1` [Example 107, N-((5-((6′-cyano-[2,3′-bipyridin]-4-yl)oxy)-6-methylpyridin-2-yl)carbamoyl)pivalamide], the IC50 in the assay with M-NFS-60 cells was 100 to 1000 nM; in the assay on osteoclast precursors, 10 to 100 nM; in assay [1] it was 10 to 100 nM; in assay [2] (setting [5]), more than 1000 nM; in assay [3] (setting [6]) it was more than 1000 nM; in assay [4] (setting [7]), 10 to 100 nM.
With `CCOC(C)(C)C(=O)NC(=O)Nc1ccc(Oc2ccnc(-c3cnn(C)c3)c2)cn1` [Example 123, 2-ethoxy-2-methyl-N-((5-((2-(1-methyl-1H-pyrazol-4-yl)pyridin-4-yl)oxy)pyridin-2-yl)carbamoyl)propanamide], the IC50 with M-NFS-60 cells was 10 to 100 nM; with osteoclast precursors it was less than 10 nM; in assay [1], 10 to 100 nM; in assay [2] (setting [5]) it was 100 to 1000 nM; in assay [3] (setting [6]) it was 100 to 1000 nM; in assay [4] (setting [7]), less than 10 nM.
Consider `CCOC(C)(C)C(=O)NC(=O)Nc1ccc(Oc2ccnc(-c3cnc(C)s3)c2)cn1` [Example 124, 2-ethoxy-2-methyl-N-((5-((2-(2-methylthiazol-5-yl)pyridin-4-yl)oxy)pyridin-2-yl)carbamoyl)propanamide], for which the IC50 in the assay with M-NFS-60 cells was 10 to 100 nM; in the assay on osteoclast precursors, 10 to 100 nM; in assay [1], 10 to 100 nM; in assay [2] (setting [5]), more than 1000 nM; in assay [3] (setting [6]), more than 1000 nM; in assay [4] (setting [7]), less than 10 nM.
On to `CC(C)(C)C(=O)NC(=O)Nc1ccc(Oc2ccnc(-c3cncs3)c2)cn1` [Example 125, N-((5-((2-(thiazol-5-yl)pyridin-4-yl)oxy)pyridin-2-yl)carbamoyl)pivalamide], for which the IC50 with M-NFS-60 cells is 100 to 1000 nM; in the assay with osteoclast precursors it was less than 10 nM; in assay [1] it was 10 to 100 nM; in assay [2] (setting [5]) it was more than 1000 nM; in assay [3] (setting [6]), more than 1000 nM; in assay [4] (setting [7]), less than 10 nM.
Consider `COC1(C(=O)NC(=O)Nc2ccc(Oc3ccnc(-c4ccc(C)nc4)c3)cn2)CC1` [Example 126, 1-methoxy-N-((5-((6′-methyl-[2,3′-bipyridin]-4-yl)oxy)pyridin-2-yl)carbamoyl)cyclopropanecarboxamide], for which the IC50 was 10 to 100 nM in the assay on M-NFS-60 cells; less than 10 nM in the assay with osteoclast precursors; 10 to 100 nM in assay [1]; 100 to 1000 nM in assay [2] (setting [5]); 10 to 100 nM in assay [3] (setting [6]); less than 10 nM in assay [4] (setting [7]).
With `CCOC(C)(C)C(=O)NC(=O)Nc1ccc(Oc2ccnc(-c3cnn(C)c3)c2)c(C)n1` [Example 127, 2-ethoxy-2-methyl-N-((6-methyl-5-((2-(1-methyl-1H-pyrazol-4-yl)pyridin-4-yl)oxy)pyridin-2-yl)carbamoyl)propanamide], the IC50 with M-NFS-60 cells was 10 to 100 nM; in the assay on osteoclast precursors it was less than 10 nM; in assay [1], 10 to 100 nM; in assay [2] (setting [5]) it was 100 to 1000 nM; in assay [3] (setting [6]) it was 100 to 1000 nM; in assay [4] (setting [7]) it was less than 10 nM.
Regarding `COC(C)(C)C(=O)NC(=O)Nc1ccc(Oc2ccnc(-n3cnc(C)c3)c2)cn1` [Example 130, 2-methoxy-2-methyl-N-((5-((2-(4-methyl-1H-imidazol-1-yl)pyridin-4-yl)oxy)pyridin-2-yl)carbamoyl)propanamide], the IC50 in the assay with M-NFS-60 cells was 10 to 100 nM; in the assay with osteoclast precursors, 10 to 100 nM; in assay [1], less than 10 nM; in assay [2] (setting [5]), more than 1000 nM; in assay [3] (setting [6]), more than 1000 nM; in assay [4] (setting [7]) it was 10 to 100 nM.
As to `Cc1nc(NC(=O)NC(=O)C(C)(C)C)ccc1Oc1ccnc(-c2cncs2)c1` [Example 131, N-((6-methyl-5-((2-(thiazol-5-yl)pyridin-4-yl)oxy)pyridin-2-yl)carbamoyl)pivalamide], the IC50 was 10 to 100 nM with M-NFS-60 cells; 10 to 100 nM in the assay with osteoclast precursors; less than 10 nM in assay [1]; more than 1000 nM in assay [2] (setting [5]); more than 1000 nM in assay [3] (setting [6]); less than 10 nM in assay [4] (setting [7]).
With `COC(C)(C)C(=O)NC(=O)Nc1ccc(Oc2ccnc(-c3cn(C)cn3)c2)cn1` [Example 132, 2-methoxy-2-methyl-N-((5-((2-(1-methyl-1H-imidazol-4-yl)pyridin-4-yl)oxy)pyridin-2-yl)carbamoyl)propanamide], the IC50 in the assay on M-NFS-60 cells was 10 to 100 nM; in the assay with osteoclast precursors, less than 10 nM; in assay [1] it was less than 10 nM; in assay [2] (setting [5]), more than 1000 nM; in assay [3] (setting [6]), 100 to 1000 nM; in assay [4] (setting [7]), less than 10 nM.
Take `Cc1cn(-c2cc(Oc3ccc(NC(=O)NC(=O)C4(C)CC4)nc3C)ccn2)cn1` [Example 135, 1-methyl-N-((6-methyl-5-((2-(4-methyl-1H-imidazol-1-yl)pyridin-4-yl)oxy)pyridin-2-yl)carbamoyl)cyclopropanecarboxamide]: the IC50 with M-NFS-60 cells is 10 to 100 nM; with osteoclast precursors, less than 10 nM; in assay [1], 10 to 100 nM; in assay [2] (setting [5]), more than 1000 nM; in assay [3] (setting [6]), more than 1000 nM; in assay [4] (setting [7]), 10 to 100 nM.
As for `COC(C)(C)C(=O)NC(=O)Nc1cc(C)c(Oc2ccnc(-c3cnn(C)c3)c2)c(C)n1` [Example 140, N-((4,6-dimethyl-5-((2-(1-methyl-1H-pyrazol-4-yl)pyridin-4-yl)oxy)pyridin-2-yl)carbamoyl)-2-methoxy-2-methylpropanamide], the IC50 was less than 10 nM in the assay with M-NFS-60 cells; 10 to 100 nM in the assay on osteoclast precursors; less than 10 nM in assay [1]; 10 to 100 nM in assay [2] (setting [5]); 100 to 1000 nM in assay [3] (setting [6]); less than 10 nM in assay [4] (setting [7]).
